From publication PMC11345841, “Exploring 2-Sulfonylpyrimidine Warheads as Acrylamide Surrogates for Targeted Covalent Inhibition: A BTK Story” (Journal of Medicinal Chemistry, 2024)
Like-named read-outs stand apart in the source and are kept apart here.

Key:
BTK, full length (2–659) = BTK, full length (2–659) (Homo sapiens, UniProt Q06187); test: PhosphoSens enzymatic IC50 (AssayQuant); assay type: biochemical; details: for IC50: 1 nM BTK, 1.0 mM ATP; for fold change, 1 nM BTK: IC50 0 min vs 60 min preincubation
Text: (§1) Biochemical enzymatic IC50 data were generated by AssayQuant Technologies (Marlborough, MA) using the PhosphoSens Platform. […] Reaction rate versus log [inhibitor concentration] data were fitted to the four-parameter logistic equation [drawing 1]

[1] = target: T1, EGFR, cytoplasmic domain (669–1210) (Homo sapiens, UniProt P00533); test: PhosphoSens enzymatic IC50 (AssayQuant); assay type: biochemical; details: no preincubation
T1 construct: GST (N); purchased Carna Biosciences
Text: as §1

[2] = target: T2, ABL1(F317L)-phosphorylated (Homo sapiens, UniProt P00519, F317L); test: KINOMEscan ScanTK; assay type: binding
T2 construct: purchased Eurofins DiscoverX KINOMEscan (scanTK)

[3] = target: T3, ABL1(H396P)-nonphosphorylated (Homo sapiens, UniProt P00519, H396P); test: KINOMEscan ScanTK; assay type: binding
T3 construct: purchased Eurofins DiscoverX KINOMEscan (scanTK)

DDR1 = target: T4, DDR1 (Homo sapiens, UniProt Q08345); test: KINOMEscan ScanTK; assay type: binding
T4 construct: purchased Eurofins DiscoverX KINOMEscan (scanTK)

[4] = target: T5, EGFR(L747-E749del, A750P) (Homo sapiens, UniProt P00533, A750P/DEL747-749); test: KINOMEscan ScanTK; assay type: binding
T5 construct: purchased Eurofins DiscoverX KINOMEscan (scanTK)

EGFR(L858R) = target: T6, EGFR(L858R) (Homo sapiens, UniProt P00533, L858R); test: KINOMEscan ScanTK; assay type: binding
T6 construct: purchased Eurofins DiscoverX KINOMEscan (scanTK)

EPHB4 = target: T7, EPHB4 (Homo sapiens, UniProt P54760); test: KINOMEscan ScanTK; assay type: binding
T7 construct: purchased Eurofins DiscoverX KINOMEscan (scanTK)
T7 sequence (P54760 16-987): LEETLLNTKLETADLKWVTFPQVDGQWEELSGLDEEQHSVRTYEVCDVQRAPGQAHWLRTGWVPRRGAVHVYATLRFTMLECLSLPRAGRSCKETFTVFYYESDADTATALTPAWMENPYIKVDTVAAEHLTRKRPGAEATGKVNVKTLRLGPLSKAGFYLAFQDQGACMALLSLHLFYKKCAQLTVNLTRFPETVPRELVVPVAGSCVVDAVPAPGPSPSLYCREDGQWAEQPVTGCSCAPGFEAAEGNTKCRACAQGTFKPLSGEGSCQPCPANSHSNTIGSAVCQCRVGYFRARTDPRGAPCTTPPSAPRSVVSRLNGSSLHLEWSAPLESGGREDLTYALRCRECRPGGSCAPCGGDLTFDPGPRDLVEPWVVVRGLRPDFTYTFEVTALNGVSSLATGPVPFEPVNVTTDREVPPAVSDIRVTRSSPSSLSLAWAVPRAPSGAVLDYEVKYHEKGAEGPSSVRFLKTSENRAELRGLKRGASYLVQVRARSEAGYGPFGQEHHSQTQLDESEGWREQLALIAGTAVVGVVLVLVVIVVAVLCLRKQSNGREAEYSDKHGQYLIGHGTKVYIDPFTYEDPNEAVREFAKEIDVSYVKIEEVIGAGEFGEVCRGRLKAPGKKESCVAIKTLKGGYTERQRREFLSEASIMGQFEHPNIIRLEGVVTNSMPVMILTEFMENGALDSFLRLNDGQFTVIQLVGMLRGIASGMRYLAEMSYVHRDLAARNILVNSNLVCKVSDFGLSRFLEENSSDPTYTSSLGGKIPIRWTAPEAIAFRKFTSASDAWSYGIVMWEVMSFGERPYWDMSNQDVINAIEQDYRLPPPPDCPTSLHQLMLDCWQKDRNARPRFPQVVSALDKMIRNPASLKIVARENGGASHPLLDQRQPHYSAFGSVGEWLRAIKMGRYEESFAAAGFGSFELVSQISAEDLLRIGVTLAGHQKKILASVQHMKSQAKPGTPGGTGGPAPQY

[5] = target: T8, JAK1(JH1domain-catalytic) (Homo sapiens, UniProt P23458); test: KINOMEscan ScanTK; assay type: binding
T8 construct: JAK1(JH1domain-catalytic); purchased Eurofins DiscoverX KINOMEscan (scanTK)

KIT(D816V) = target: T9, KIT(D816V) (Homo sapiens, UniProt P10721, D816V); test: KINOMEscan ScanTK; assay type: binding
T9 construct: purchased Eurofins DiscoverX KINOMEscan (scanTK)

MST1R = target: T10, MST1R (Homo sapiens, UniProt Q04912); test: KINOMEscan ScanTK; assay type: binding
T10 construct: purchased Eurofins DiscoverX KINOMEscan (scanTK)

TEC = target: T11, TEC (Homo sapiens, UniProt P42680); test: KINOMEscan ScanTK; assay type: binding
T11 construct: purchased Eurofins DiscoverX KINOMEscan (scanTK)
T11 sequence (P42680 1-631): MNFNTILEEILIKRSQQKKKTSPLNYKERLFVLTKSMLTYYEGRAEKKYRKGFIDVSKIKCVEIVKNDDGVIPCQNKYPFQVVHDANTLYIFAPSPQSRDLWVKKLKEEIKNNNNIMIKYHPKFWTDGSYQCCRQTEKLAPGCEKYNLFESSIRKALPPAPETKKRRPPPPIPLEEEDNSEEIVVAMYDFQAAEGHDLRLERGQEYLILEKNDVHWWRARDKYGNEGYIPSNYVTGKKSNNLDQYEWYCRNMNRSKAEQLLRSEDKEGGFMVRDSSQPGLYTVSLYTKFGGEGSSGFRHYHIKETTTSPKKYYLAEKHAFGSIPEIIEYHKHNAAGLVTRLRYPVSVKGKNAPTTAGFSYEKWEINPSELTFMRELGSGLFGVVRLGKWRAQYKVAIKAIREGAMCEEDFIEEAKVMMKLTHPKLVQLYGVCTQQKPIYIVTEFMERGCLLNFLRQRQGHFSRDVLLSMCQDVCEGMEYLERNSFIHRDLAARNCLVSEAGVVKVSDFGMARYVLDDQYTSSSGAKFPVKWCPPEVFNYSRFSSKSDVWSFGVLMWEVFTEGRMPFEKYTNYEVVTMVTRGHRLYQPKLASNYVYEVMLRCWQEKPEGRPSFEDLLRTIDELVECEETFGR

[6] = target: T12, TYK2(JH2domain-pseudokinase) (Homo sapiens, UniProt P29597); test: KINOMEscan ScanTK; assay type: binding; details: for difference in %Control versus Ib at 1 µM: read-out: % difference (compound - Ib %Control)
T12 construct: TYK2(JH2domain-pseudokinase); purchased Eurofins DiscoverX KINOMEscan (scanTK)

[7] = 0 min preincubation IC50 (nM), 0 min preincubation
[8] = 60 min preincubation IC50 (nM), 60 min preincubation

T6 sequence (P00533 25-1210 L858R): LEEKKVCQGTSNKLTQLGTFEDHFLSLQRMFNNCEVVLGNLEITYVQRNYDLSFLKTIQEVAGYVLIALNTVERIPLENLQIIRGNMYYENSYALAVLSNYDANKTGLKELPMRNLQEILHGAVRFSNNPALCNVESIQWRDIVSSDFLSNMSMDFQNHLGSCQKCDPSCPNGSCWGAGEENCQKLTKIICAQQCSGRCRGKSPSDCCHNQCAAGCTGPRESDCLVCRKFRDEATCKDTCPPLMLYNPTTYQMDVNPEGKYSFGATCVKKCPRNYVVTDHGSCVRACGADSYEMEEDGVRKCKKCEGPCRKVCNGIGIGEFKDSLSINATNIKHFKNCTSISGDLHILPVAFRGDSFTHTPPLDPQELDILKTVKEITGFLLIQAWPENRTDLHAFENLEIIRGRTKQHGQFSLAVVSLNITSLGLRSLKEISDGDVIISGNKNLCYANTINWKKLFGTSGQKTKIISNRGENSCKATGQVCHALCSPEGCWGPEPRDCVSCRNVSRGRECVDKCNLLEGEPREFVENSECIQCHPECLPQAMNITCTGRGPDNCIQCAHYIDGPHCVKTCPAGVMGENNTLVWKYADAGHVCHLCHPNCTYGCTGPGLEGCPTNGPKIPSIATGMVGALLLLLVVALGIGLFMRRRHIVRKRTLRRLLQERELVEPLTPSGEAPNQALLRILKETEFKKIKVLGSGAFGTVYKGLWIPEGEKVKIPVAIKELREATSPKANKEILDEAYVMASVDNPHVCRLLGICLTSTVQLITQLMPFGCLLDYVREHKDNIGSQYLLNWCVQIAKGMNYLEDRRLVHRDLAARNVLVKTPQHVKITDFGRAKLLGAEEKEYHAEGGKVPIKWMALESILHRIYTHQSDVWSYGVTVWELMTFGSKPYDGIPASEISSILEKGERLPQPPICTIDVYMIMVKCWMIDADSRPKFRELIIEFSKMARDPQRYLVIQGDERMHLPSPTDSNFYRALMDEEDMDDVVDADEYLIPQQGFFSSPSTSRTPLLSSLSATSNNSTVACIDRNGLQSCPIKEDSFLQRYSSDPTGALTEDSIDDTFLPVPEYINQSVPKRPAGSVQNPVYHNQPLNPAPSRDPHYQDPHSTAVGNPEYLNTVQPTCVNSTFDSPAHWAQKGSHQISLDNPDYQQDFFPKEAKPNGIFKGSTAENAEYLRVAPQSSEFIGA
T1 sequence (P00533 669-1210): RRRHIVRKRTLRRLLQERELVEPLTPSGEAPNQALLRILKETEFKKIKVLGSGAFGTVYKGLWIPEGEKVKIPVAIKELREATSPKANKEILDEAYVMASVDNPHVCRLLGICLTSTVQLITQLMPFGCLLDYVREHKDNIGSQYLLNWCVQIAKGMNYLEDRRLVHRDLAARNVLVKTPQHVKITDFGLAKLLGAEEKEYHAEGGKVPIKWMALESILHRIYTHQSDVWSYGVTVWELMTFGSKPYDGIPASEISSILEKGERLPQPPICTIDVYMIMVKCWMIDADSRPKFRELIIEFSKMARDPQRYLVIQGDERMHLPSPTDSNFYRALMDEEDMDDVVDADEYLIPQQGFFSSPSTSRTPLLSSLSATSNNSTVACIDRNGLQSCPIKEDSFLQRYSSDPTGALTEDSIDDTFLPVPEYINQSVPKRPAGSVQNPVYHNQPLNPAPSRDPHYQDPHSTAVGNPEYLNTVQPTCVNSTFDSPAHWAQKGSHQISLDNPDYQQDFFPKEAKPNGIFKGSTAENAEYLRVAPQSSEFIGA
T9 sequence (P10721 26-976 D816V): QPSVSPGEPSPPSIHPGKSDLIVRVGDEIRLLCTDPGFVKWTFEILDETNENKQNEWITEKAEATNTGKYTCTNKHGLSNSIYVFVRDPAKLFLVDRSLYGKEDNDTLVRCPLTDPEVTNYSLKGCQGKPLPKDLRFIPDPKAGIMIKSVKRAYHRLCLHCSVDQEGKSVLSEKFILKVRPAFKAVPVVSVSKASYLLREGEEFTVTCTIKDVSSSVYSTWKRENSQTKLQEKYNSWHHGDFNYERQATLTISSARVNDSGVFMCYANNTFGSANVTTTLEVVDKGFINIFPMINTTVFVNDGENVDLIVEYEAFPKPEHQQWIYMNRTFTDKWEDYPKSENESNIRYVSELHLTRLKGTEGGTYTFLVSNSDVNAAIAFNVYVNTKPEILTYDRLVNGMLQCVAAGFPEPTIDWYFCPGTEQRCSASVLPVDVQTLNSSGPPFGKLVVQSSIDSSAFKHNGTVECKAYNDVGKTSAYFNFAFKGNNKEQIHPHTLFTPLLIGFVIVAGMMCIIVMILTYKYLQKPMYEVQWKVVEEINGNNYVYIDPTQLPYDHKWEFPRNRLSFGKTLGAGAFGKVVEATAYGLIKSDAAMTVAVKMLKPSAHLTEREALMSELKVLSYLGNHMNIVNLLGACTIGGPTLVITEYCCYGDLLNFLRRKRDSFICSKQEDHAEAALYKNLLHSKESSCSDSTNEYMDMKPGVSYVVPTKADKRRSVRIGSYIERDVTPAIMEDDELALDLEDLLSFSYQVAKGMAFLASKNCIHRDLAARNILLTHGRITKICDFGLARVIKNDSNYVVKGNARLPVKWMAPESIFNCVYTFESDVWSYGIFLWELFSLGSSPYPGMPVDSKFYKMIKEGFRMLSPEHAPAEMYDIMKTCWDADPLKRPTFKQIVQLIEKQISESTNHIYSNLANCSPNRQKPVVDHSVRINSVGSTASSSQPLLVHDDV
T12 sequence (P29597 575-869 limits assumed): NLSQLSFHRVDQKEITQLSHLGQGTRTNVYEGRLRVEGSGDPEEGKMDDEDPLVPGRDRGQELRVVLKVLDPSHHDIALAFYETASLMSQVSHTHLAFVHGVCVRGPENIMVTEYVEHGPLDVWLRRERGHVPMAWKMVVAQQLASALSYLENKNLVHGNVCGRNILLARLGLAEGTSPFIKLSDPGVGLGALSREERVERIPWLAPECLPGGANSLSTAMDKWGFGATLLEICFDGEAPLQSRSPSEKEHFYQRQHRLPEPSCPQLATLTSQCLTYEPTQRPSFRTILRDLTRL
Chain of BTK, full length (2–659) (Q06187 2-659): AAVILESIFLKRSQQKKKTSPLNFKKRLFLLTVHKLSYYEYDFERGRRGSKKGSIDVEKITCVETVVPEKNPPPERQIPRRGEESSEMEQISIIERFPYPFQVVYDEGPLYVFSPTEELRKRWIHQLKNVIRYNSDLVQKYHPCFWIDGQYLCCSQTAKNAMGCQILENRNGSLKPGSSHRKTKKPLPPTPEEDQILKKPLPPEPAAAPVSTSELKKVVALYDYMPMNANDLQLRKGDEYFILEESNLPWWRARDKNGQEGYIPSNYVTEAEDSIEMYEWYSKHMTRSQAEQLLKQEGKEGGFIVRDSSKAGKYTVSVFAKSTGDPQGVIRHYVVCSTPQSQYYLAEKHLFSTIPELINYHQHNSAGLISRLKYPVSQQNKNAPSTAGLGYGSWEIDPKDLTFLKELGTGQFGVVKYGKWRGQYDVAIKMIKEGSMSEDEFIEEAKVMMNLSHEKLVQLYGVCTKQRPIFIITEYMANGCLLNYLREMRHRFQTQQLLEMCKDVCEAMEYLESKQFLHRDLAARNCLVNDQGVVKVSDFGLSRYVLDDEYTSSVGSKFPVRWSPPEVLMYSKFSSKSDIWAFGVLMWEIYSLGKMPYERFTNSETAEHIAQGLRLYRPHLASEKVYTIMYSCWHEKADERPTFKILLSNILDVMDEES
T5 sequence (P00533 with tags, fused parts or gaps DEL747-749/A750P limits assumed): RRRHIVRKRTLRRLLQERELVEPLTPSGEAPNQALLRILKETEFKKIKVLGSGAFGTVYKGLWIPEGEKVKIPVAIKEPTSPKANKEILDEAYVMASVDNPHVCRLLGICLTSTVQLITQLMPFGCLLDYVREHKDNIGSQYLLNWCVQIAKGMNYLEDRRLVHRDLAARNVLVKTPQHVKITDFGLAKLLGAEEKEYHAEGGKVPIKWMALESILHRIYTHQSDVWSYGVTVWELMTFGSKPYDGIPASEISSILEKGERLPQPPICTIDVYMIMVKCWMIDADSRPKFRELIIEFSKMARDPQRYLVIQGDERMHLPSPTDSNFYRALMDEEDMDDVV
T4 sequence (Q08345 19-913): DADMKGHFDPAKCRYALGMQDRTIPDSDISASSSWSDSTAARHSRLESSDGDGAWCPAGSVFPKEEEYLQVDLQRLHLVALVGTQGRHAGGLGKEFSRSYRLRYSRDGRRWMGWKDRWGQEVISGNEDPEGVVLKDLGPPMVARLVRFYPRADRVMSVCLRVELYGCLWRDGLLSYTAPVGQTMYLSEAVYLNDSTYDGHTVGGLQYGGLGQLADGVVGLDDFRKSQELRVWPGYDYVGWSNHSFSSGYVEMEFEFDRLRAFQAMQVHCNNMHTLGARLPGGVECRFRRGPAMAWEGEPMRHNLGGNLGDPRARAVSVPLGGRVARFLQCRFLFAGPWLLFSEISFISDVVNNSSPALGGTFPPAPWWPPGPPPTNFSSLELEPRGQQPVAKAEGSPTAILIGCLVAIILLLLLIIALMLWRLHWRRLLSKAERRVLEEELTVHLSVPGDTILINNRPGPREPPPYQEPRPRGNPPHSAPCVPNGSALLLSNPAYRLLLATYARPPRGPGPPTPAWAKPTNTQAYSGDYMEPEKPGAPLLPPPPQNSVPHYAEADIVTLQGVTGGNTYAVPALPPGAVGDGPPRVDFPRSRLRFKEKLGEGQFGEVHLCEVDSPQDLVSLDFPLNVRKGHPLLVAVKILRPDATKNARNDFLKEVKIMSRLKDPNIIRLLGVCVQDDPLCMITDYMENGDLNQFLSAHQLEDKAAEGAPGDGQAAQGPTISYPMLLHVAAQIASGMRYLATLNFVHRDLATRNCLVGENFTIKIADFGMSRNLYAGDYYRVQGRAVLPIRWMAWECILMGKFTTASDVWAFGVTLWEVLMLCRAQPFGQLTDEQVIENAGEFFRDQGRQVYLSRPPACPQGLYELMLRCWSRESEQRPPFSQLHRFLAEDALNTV

SMILES | difference in %Control from compound Ib at 1 µM ([2]; @1000nM) | remaining binding at 1 µM ([2]; @1000nM, read-out: %Control) | remaining binding at 1 µM ([2]; read-out: %Control @1000nM) | difference in %Control versus compound Ib at 1 µM ([3]; @1000nM) | remaining binding at 1 µM ([3]; @1000nM, read-out: %Control) | remaining binding at 1 µM ([3]; read-out: %Control @1000nM) | difference in %Control from compound Ib at 1 µM (DDR1; @1000nM) | remaining binding at 1 µM (DDR1; @1000nM, read-out: %Control) | remaining binding at 1 µM (DDR1; read-out: %Control @1000nM) | difference in %Control versus compound Ib at 1 µM ([4]; @1000nM) | remaining binding at 1 µM (EPHB4; @1000nM, read-out: %Control) | remaining binding at 1 µM (EPHB4; read-out: %Control @1000nM) | remaining binding at 1 µM ([5]; @1000nM, read-out: %Control) | remaining binding at 1 µM ([5]; read-out: %Control @1000nM) | remaining binding at 1 µM (KIT(D816V); @1000nM, read-out: %Control) | remaining binding at 1 µM (KIT(D816V); read-out: %Control @1000nM) | remaining binding at 1 µM (TEC; @1000nM, read-out: %Control) | remaining binding at 1 µM (TEC; read-out: %Control @1000nM) | remaining binding at 1 µM ([6]; @1000nM, read-out: %Control) | remaining binding at 1 µM ([6]; read-out: %Control @1000nM) | also measured
Cc1cnc(S(C)(=O)=O)nc1N1CCCC(n2nc(-c3ccc(Oc4ccccc4)cc3)c3c(N)ncnc32)C1 (stereo not drawn) [Compound 8a, 1-(1-(5-Methyl-2-(methylsulfonyl)pyrimidin-4-yl)piperidin-3-yl)-3-(4-phenoxyphenyl)-1H-pyrazolo[3,4-d]pyrimidin-4-amine] | 15% | 52% | 52% | 47% | 61% | 61% | 5% | 83% | 83% | 79.9% | 100% | 100% | 94% | 94% | 74% | 74% | 27% | 27% | 92% | 92% | IC50 (BTK, full length (2–659); [7]): 6 nM; IC50 (BTK, full length (2–659); [8]): 0.31 nM; fold change, 1 nM BTK (BTK, full length (2–659)): 19.6; 0 min IC50 (nM), 3 nM EGFR [1]: none of the compounds, 8a, 8b, or 8d, exhibited measurable inhibition; IC50 [1]: > 1000 nM; remaining binding at 1 µM ([4]; @1000nM, read-out: %Control): 83%; remaining binding at 1 µM ([4]; read-out: %Control @1000nM): 83%; %Control difference from compound Ib at 1 µM (EGFR(L858R); @1000nM): 81.1%; remaining binding at 1 µM (EGFR(L858R); @1000nM, read-out: %Control): 83%; remaining binding at 1 µM (EGFR(L858R); read-out: %Control @1000nM): 83%; difference in %Control from compound Ib at 1 µM (EPHB4; @1000nM): 0%; difference in %Control versus compound Ib at 1 µM ([5]; @1000nM): 0%; remaining binding at 1 µM (MST1R; @1000nM, read-out: %Control): 100%; remaining binding at 1 µM (MST1R; read-out: %Control @1000nM): 100%; difference in %Control versus Ib at 1 µM ([6]; @1000nM): 4%
CCOC(=O)c1cnc(S(C)(=O)=O)nc1N1CCC[C@@H](n2nc(-c3ccc(Oc4ccccc4)cc3)c3c(N)ncnc32)C1 [Compound 8c, Ethyl (R)-4-(3-(4-Amino-3-(4-phenoxyphenyl)-1H-pyrazolo[3,4-d]pyrimidin-1-yl)piperidin-1-yl)-2-(methylsulfonyl)pyrimidine-5-carboxylate] | 49% | 86% | 86% | 41% | 55% | 55% | -14% | 64% | 64% | 63.9% | 86% | 86% | 100% | 100% | 85% | 85% | 53% | 53% | 100% | 100% | remaining binding at 1 µM ([4]; @1000nM, read-out: %Control): 67%; remaining binding at 1 µM ([4]; read-out: %Control @1000nM): 67%; %Control difference from compound Ib at 1 µM (EGFR(L858R); @1000nM): 64.1%; remaining binding at 1 µM (EGFR(L858R); @1000nM, read-out: %Control): 66%; remaining binding at 1 µM (EGFR(L858R); read-out: %Control @1000nM): 66%; difference in %Control from compound Ib at 1 µM (EPHB4; @1000nM): -14%; difference in %Control versus compound Ib at 1 µM ([5]; @1000nM): 6%; remaining binding at 1 µM (MST1R; @1000nM, read-out: %Control): 98%; remaining binding at 1 µM (MST1R; read-out: %Control @1000nM): 98%; difference in %Control versus Ib at 1 µM ([6]; @1000nM): 12%
COC(=O)c1cnc(S(C)(=O)=O)nc1N1CCCC(n2nc(-c3ccc(Oc4ccccc4)cc3)c3c(N)ncnc32)C1 (stereo not drawn) [Compound 8b, Methyl 4-(3-(4-Amino-3-(4-phenoxyphenyl)-1H-pyrazolo[3,4-d]pyrimidin-1-yl)piperidin-1-yl)-2-(methylsulfonyl)pyrimidine-5-carboxylate] | 16% | 53% | 53% | 55% | 69% | 69% | -18% | 60% | 60% | 69.9% | 98% | 98% | 97% | 97% | 85% | 85% | 32% | 32% | 96% | 96% | IC50 (BTK, full length (2–659); [7]): 79 nM; IC50 (BTK, full length (2–659); [8]): 6.3 nM; fold change, 1 nM BTK (BTK, full length (2–659)): 12.5; 0 min IC50 (nM), 3 nM EGFR [1]: none of the compounds, 8a, 8b, or 8d, exhibited measurable inhibition; IC50 [1]: > 1000 nM; remaining binding at 1 µM ([4]; @1000nM, read-out: %Control): 73%; remaining binding at 1 µM ([4]; read-out: %Control @1000nM): 73%; %Control difference from compound Ib at 1 µM (EGFR(L858R); @1000nM): 72.1%; remaining binding at 1 µM (EGFR(L858R); @1000nM, read-out: %Control): 74%; remaining binding at 1 µM (EGFR(L858R); read-out: %Control @1000nM): 74%; difference in %Control from compound Ib at 1 µM (EPHB4; @1000nM): -2%; difference in %Control versus compound Ib at 1 µM ([5]; @1000nM): 3%; remaining binding at 1 µM (MST1R; @1000nM, read-out: %Control): 96%; remaining binding at 1 µM (MST1R; read-out: %Control @1000nM): 96%; difference in %Control versus Ib at 1 µM ([6]; @1000nM): 8%
C=CC(=O)N1CCC[C@@H](n2nc(-c3ccc(Oc4ccccc4)cc3)c3c(N)ncnc32)C1 [Compound 1g, Ibrutinib, reference compound] |  |  |  |  | 14% | 14% |  | 78% | 78% |  | 100% | 100% | 94% | 94% | 86% | 86% | 20% | 20% | 88% | 88% | 
